Results from the NIST ThermoML archive (doi:10.1016/j.jct.2016.04.003).
± gives the expanded uncertainty stated by the source.

Assay: xn = mol fraction of the nth substance listed
Settings: for surface tension liquid-gas: Drop volume; for viscosity / speed of sound / mass density: 99 kPa, Liquid; for viscosity: Capillary tube (Ostwald / Ubbelohde) method; for speed of sound: Frequency=3 MHz, Sing-around technique in a fixed-path interferometer; for mass density: Vibrating tube method

CCC[n+]1ccccc1.F[B-](F)(F)F [1-propylpyridinium tetrafluoroborate] + O
Settings | mass density [kg/m3] | speed of sound [m/s] | surface tension liquid-gas [mN/m] | viscosity [mPa·s]
313.15 K, x1 = 0.0185 | 1026 ± 1.1 | 1559 ± 1.3 | – | –
313.15 K, x1 = 0.028 | – | – | 56 ± 0.6 | –
313.15 K, x1 = 0.0287 | 1041.1 ± 1 | 1568.7 ± 1.2 | – | –
313.15 K, x1 = 0.0466 | 1063.1 ± 1 | 1580.6 ± 1.2 | – | –
313.15 K, x1 = 0.0492 | – | – | – | 0.843 ± 0.068
313.15 K, x1 = 0.0551 | – | – | 53.7 ± 0.6 | –
313.15 K, x1 = 0.0766 | 1091.4 ± 1 | 1593 ± 1.3 | – | –
313.15 K, x1 = 0.0952 | – | – | – | 1.122 ± 0.09
313.15 K, x1 = 0.0964 | 1105.8 ± 1 | 1598.5 ± 1.3 | – | –
313.15 K, x1 = 0.1008 | – | – | 51.7 ± 0.6 | –
313.15 K, x1 = 0.1522 | – | – | 50.5 ± 0.6 | –
313.15 K, x1 = 0.1948 | – | – | – | 1.755 ± 0.14
313.15 K, x1 = 0.1965 | – | – | 49.9 ± 0.6 | –
313.15 K, x1 = 0.2011 | 1154.3 ± 1 | 1610.4 ± 1.3 | – | –
313.15 K, x1 = 0.2588 | – | – | – | 2.326 ± 0.19
313.15 K, x1 = 0.2858 | 1176.6 ± 1 | 1610.4 ± 1.4 | – | –
313.15 K, x1 = 0.2947 | – | – | 49.8 ± 0.6 | –
313.15 K, x1 = 0.3451 | – | – | 49.6 ± 0.6 | –
313.15 K, x1 = 0.3891 | – | – | – | 4.172 ± 0.34
313.15 K, x1 = 0.3968 | – | – | 49.5 ± 0.6 | –
313.15 K, x1 = 0.3993 | 1196.3 ± 1 | 1607.7 ± 1.5 | – | –
313.15 K, x1 = 0.4779 | – | – | 49.5 ± 0.6 | –
313.15 K, x1 = 0.4894 | – | – | – | 7.412 ± 0.6
313.15 K, x1 = 0.4979 | 1208.2 ± 1.1 | 1604.7 ± 1.6 | – | –
313.15 K, x1 = 0.5772 | 1215.5 ± 1.1 | 1602.4 ± 1.7 | – | –
313.15 K, x1 = 0.5827 | – | – | 49.6 ± 0.6 | –
313.15 K, x1 = 0.5942 | – | – | – | 10.92 ± 0.88
313.15 K, x1 = 0.6015 | 1217.5 ± 1.1 | 1601.9 ± 1.7 | – | –
313.15 K, x1 = 0.6695 | 1222.5 ± 1.2 | 1600.6 ± 1.8 | – | –
313.15 K, x1 = 0.6846 | – | – | 49.6 ± 0.6 | –
313.15 K, x1 = 0.6952 | – | – | – | 16.2 ± 1.3
313.15 K, x1 = 0.7309 | 1226.5 ± 1.2 | 1599.9 ± 1.9 | – | –
313.15 K, x1 = 0.7771 | 1229.4 ± 1.3 | 1599.7 ± 2 | – | –
313.15 K, x1 = 0.7861 | – | – | 49.6 ± 0.7 | –
313.15 K, x1 = 0.7903 | – | – | – | 23.05 ± 1.9
313.15 K, x1 = 0.8395 | 1232.9 ± 1.4 | 1600.3 ± 2.1 | – | –
313.15 K, x1 = 0.8862 | – | – | 49.6 ± 0.7 | –
313.15 K, x1 = 0.8982 | – | – | – | 35.15 ± 2.8
313.15 K, x1 = 0.9054 | 1236.7 ± 1.4 | 1601.8 ± 2.2 | – | –
313.15 K, x1 = 0.9425 | – | – | 49.7 ± 0.7 | –
313.15 K, x1 = 0.943 | – | – | – | 43.35 ± 3.5
313.15 K, x1 = 0.9633 | 1240.1 ± 1.5 | 1604.2 ± 2.3 | – | –
313.15 K, x1 = 1 | 1242.4 ± 1.6 | 1606.3 ± 2.3 | 49.8 ± 0.7 | 56.02 ± 4.5
323.15 K, x1 = 0.0185 | 1020.8 ± 1.1 | 1563.2 ± 1.2 | – | –
323.15 K, x1 = 0.028 | – | – | 54.5 ± 0.6 | –
323.15 K, x1 = 0.0287 | 1035.6 ± 1 | 1569.4 ± 1.2 | – | –
323.15 K, x1 = 0.0466 | 1057 ± 1 | 1576.8 ± 1.2 | – | –
323.15 K, x1 = 0.0492 | – | – | – | 0.714 ± 0.057
323.15 K, x1 = 0.0551 | – | – | 52.2 ± 0.6 | –
323.15 K, x1 = 0.0766 | 1084.7 ± 1 | 1583.8 ± 1.2 | – | –
323.15 K, x1 = 0.0952 | – | – | – | 0.889 ± 0.071
323.15 K, x1 = 0.0964 | 1098.9 ± 1 | 1586.7 ± 1.3 | – | –
323.15 K, x1 = 0.1008 | – | – | 50.4 ± 0.5 | –
323.15 K, x1 = 0.1522 | – | – | 49.2 ± 0.5 | –
323.15 K, x1 = 0.1948 | – | – | – | 1.379 ± 0.11
323.15 K, x1 = 0.1965 | – | – | 48.6 ± 0.5 | –
323.15 K, x1 = 0.2011 | 1146.9 ± 1 | 1591.5 ± 1.3 | – | –
323.15 K, x1 = 0.2588 | – | – | – | 1.808 ± 0.14
323.15 K, x1 = 0.2858 | 1169.2 ± 1 | 1589.7 ± 1.4 | – | –
323.15 K, x1 = 0.2947 | – | – | 48.7 ± 0.6 | –
323.15 K, x1 = 0.3451 | – | – | 48.6 ± 0.6 | –
323.15 K, x1 = 0.3891 | – | – | – | 3.105 ± 0.25
323.15 K, x1 = 0.3968 | – | – | 48.5 ± 0.6 | –
323.15 K, x1 = 0.3993 | 1189 ± 1 | 1586 ± 1.5 | – | –
323.15 K, x1 = 0.4779 | – | – | 48.5 ± 0.6 | –
323.15 K, x1 = 0.4894 | – | – | – | 5.345 ± 0.43
323.15 K, x1 = 0.4979 | 1200.9 ± 1.1 | 1582.6 ± 1.6 | – | –
323.15 K, x1 = 0.5772 | 1208.2 ± 1.1 | 1580 ± 1.7 | – | –
323.15 K, x1 = 0.5827 | – | – | 48.7 ± 0.6 | –
323.15 K, x1 = 0.5942 | – | – | – | 8.242 ± 0.66
323.15 K, x1 = 0.6015 | 1210.1 ± 1.1 | 1579.4 ± 1.7 | – | –
323.15 K, x1 = 0.6695 | 1215.1 ± 1.2 | 1577.7 ± 1.8 | – | –
323.15 K, x1 = 0.6846 | – | – | 48.7 ± 0.6 | –
323.15 K, x1 = 0.6952 | – | – | – | 12.05 ± 0.97
323.15 K, x1 = 0.7309 | 1219.2 ± 1.2 | 1576.7 ± 1.9 | – | –
323.15 K, x1 = 0.7771 | 1222.1 ± 1.3 | 1576.2 ± 2 | – | –
323.15 K, x1 = 0.7861 | – | – | 48.8 ± 0.7 | –
323.15 K, x1 = 0.7903 | – | – | – | 15.97 ± 1.3
323.15 K, x1 = 0.8395 | 1225.8 ± 1.3 | 1576.6 ± 2.1 | – | –
323.15 K, x1 = 0.8862 | – | – | 48.9 ± 0.7 | –
323.15 K, x1 = 0.8982 | – | – | – | 23.99 ± 1.9
323.15 K, x1 = 0.9054 | 1229.6 ± 1.4 | 1578.1 ± 2.2 | – | –
323.15 K, x1 = 0.9425 | – | – | 48.9 ± 0.7 | –
323.15 K, x1 = 0.943 | – | – | – | 28.38 ± 2.3
323.15 K, x1 = 0.9633 | 1233 ± 1.5 | 1580.8 ± 2.3 | – | –
323.15 K, x1 = 1 | 1235.3 ± 1.6 | 1583.3 ± 2.3 | 49 ± 0.7 | 36.99 ± 3
